Reference: patent US9981969B2, “Imidazole derivatives and methods of use thereof for improving the pharmacokinetics of a drug” (MERCK SHARP & DOHME CORP., priority 2013, dated 2018)

Tests used:
human CYP11B2 = target: T1, human CYP11B2 (Homo sapiens, UniProt P19099); assay: IC50 vs CYP11B2 by measurement of aldosterone synthesis in V79 cells; type: cell-based; conditions: V79 cells expressing human CYP11B2, 750 nM DOC, aldosterone HTRF
T1 construct: expressed in transfected cells
T1 sequence (P19099 25-503): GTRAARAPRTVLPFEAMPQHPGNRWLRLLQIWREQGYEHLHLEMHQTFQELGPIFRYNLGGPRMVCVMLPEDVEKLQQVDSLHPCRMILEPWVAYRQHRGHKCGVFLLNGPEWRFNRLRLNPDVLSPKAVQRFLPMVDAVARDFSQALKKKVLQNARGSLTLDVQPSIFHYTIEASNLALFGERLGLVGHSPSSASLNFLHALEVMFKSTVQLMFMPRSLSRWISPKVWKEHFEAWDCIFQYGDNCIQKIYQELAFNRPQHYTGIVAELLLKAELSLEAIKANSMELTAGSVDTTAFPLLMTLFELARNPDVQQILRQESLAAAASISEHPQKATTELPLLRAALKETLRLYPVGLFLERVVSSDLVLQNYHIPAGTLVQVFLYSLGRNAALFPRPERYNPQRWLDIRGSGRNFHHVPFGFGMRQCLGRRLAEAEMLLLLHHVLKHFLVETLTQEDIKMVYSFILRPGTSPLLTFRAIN
Protocol: (§1) This assay was performed in a standard 384-well plate design using cultured V79 cells stably expressing human CYP11B1 or human CYP11B2. Test compounds at 10 concentrations (for example, 10000, 3333.3, 1111.1, 370.4, 123.5, 41.2, 13.7, 4.6, 1.5 and 0.5 nM) were added in 384-well plate after the cell-seeding procedure. The incubation substrate contains 1500 nM RSS for CYP11B1 assay/750 nM DOC for CYP11B2 assay. The Cortisol/Aldosterone production of cell culture supernatant was determined by Cortisol/Aldosterone HTRF kit after for about 15 hours incubation at RT (protect from light). IC50 (nM) values were calculated from the percent inhibition observed for each test compound at 10 concentrations.
(§2) The assay plate was read using Envision (Perkin Elmer, Waltham, Mass.) at 665 nm and 590 nm (using Filter Barcode of 217#, 205#; Mirror Barcode of 446#).
(§3) Data are analyzed using Assay Data Analyzer. All ratio data (665 nm/590 nm) are back calculated according to the standard curve, resulting in Cortisol/Aldosterone concentrations. IC50 (nM) values are reported as the Inflection Point (IP) of a four parameter fit of the titration data.
(§4) The following equation was used to calculate the % inhibition: % Activity=100×{1−(Sample_back calculated Cortisol/Aldosterone concentration−LC_back calculated Cortisol/Aldosterone concentration)/(HC_back calculated Cortisol/Aldosterone concentration−LC_back calculated Cortisol/Aldosterone concentration)} Curve Fitting: Four Parameter Logistic: […]

CYP2D6 = target: T2, CYP2D6 (Homo sapiens, UniProt P10635); assay: Cocktail assay for CYPs in human liver microsomes, dextromethorphan O-demethylation (2D6); type: biochemical; conditions: 5 μM dextromethorphan, 10 min at 37° C.
T2 construct: 0.1 mg/mL protein human liver microsomes (BD Gentest); tissue BD Gentest; host or cells: human liver microsomes
T2 sequence (P10635 whole entry): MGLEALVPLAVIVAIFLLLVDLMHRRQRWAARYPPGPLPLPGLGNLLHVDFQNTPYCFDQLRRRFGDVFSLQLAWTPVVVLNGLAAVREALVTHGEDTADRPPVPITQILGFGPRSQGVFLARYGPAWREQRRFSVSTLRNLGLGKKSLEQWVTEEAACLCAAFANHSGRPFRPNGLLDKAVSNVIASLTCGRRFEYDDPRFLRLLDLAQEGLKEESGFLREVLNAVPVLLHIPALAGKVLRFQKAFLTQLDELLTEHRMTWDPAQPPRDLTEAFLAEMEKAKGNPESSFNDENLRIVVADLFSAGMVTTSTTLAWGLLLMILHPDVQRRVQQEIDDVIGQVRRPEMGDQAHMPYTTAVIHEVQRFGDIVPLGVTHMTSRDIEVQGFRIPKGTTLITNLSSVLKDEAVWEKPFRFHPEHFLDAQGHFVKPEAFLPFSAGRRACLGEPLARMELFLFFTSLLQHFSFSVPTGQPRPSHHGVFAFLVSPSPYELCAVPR
Protocol: (§5) This assay was performed in a standard 96-well plate design. IC50 values were calculated from the percent inhibition observed for each test compound at 6 concentrations (for example, 0.0032, 0.016, 0.08, 0.4, 2 and 10 μM). The incubation substrate mix contains 10 μM phenacetin (1A2), 5 μM diclofenac (2C9), 30 μM mephenytoin (2C19), 5 μM dextromethorphan (2D6) and 2 μM midazolam (3A4), 0.1 mg/mL protein human liver microsomes (BD Gentest), 1 mM NAPDH, 3.3 mM MgCl2 and 100 mM potassium phosphate buffer (pH 7.4). The production of the metabolite of each probe substrate was determined after incubation for 10 min at 37° C. Quantitation of the metabolite peak area ratio against an internal standard (tolbutamide) was determined by LC/MS/MS analysis following acetonitrile treatment of the incubations.
(§6) Samples were analyzed in the MRM mode with a SCIEX API-4000 mass spectrometer (Applied Biosystems, Foster City, Calif.), with a Shimadzu LC-20 AD pump (Shimadzu corporation, Kyoto, JP) and a CTC PAL autosampler (Agilent Technologies, Switzerland). A Phenomenex, Luna, 5 μm, 100A, 2.00×30 mm HPLC column was used for the separation. The mobile phases were: (A) 0.1% formic acid in water and (B) 0.1% formic acid in acetonitrile. The binary gradient was as follows. AutoSampler: CTC PAL
(§7) The peak area ratio of the analyte to the internal standard was used to quantify the metabolite. The values of peak area ratios in the presence of test compound were compared to those of maximum or minimum controls and were expressed as % inhibition by interpolating between the maximum and minimum peak area ratios. Incubations with no inhibitor were defined as the maxima. The following equation was used to calculate the % inhibition: [1−[(X−Low control)/(High control−Low control)]]*100 For the IC50 calculation, SigmaPlot was used to plot the mean % inhibition versus the test compound concentrations and for non-linear regression analysis of the data. Depending on the range of data points defining the inhibition curve, the data may have been fit to the 4-parameter logistic equation.

CYP3A4 = target: T3, CYP3A4 (Homo sapiens, UniProt P08684); assay: Cocktail assay for CYPs in human liver microsomes, midazolam 1′-hydroxylation (3A4); type: biochemical; conditions: 2 μM midazolam, 10 min at 37° C.
T3 construct: 0.1 mg/mL protein human liver microsomes (BD Gentest); tissue BD Gentest; host or cells: human liver microsomes
T3 sequence (P08684 whole entry): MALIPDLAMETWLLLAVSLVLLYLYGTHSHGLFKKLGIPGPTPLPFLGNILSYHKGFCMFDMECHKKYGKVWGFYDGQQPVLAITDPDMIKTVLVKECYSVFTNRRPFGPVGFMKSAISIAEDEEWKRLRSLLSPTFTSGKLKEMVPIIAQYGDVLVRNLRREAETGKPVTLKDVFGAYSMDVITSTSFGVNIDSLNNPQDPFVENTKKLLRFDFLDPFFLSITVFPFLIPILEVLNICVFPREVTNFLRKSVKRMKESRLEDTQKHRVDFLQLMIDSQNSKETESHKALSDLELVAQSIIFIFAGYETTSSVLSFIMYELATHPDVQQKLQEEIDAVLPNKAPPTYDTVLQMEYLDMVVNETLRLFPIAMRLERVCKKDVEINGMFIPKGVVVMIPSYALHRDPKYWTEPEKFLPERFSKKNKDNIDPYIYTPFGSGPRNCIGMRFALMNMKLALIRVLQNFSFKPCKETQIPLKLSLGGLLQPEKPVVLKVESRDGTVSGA
Protocol: as §5, §6, §7

human CYP11B1 = target: T4, human CYP11B1 (Homo sapiens, UniProt P15538); assay: IC50 vs CYP11B1 by measurement of cortisol synthesis in V79 cells; type: cell-based; conditions: V79 cells expressing human CYP11B1, 1500 nM RSS, cortisol HTRF
T4 construct: expressed in transfected cells
T4 sequence (P15538 25-503): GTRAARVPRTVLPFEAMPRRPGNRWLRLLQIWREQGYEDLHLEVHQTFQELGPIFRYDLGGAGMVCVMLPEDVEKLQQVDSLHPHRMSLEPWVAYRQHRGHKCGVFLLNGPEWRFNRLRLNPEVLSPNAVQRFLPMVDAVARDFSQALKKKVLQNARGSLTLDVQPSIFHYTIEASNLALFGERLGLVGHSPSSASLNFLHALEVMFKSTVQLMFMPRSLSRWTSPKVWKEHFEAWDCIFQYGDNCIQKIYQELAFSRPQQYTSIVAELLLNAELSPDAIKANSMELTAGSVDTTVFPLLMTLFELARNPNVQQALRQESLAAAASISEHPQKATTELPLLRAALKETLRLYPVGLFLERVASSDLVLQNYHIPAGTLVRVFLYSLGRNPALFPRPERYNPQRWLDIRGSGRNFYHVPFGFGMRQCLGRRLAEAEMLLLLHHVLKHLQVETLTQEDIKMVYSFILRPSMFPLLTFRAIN
Protocol: as §1, §2, §3, §4

CYP2C9 = target: T5, CYP2C9 (Homo sapiens, UniProt P11712); assay: Cocktail assay for CYPs in human liver microsomes, diclofenac 4′-hydroxylation (2C9); type: biochemical; conditions: 5 μM diclofenac, 10 min at 37° C.
T5 construct: 0.1 mg/mL protein human liver microsomes (BD Gentest); tissue BD Gentest; host or cells: human liver microsomes
T5 sequence (P11712 whole entry): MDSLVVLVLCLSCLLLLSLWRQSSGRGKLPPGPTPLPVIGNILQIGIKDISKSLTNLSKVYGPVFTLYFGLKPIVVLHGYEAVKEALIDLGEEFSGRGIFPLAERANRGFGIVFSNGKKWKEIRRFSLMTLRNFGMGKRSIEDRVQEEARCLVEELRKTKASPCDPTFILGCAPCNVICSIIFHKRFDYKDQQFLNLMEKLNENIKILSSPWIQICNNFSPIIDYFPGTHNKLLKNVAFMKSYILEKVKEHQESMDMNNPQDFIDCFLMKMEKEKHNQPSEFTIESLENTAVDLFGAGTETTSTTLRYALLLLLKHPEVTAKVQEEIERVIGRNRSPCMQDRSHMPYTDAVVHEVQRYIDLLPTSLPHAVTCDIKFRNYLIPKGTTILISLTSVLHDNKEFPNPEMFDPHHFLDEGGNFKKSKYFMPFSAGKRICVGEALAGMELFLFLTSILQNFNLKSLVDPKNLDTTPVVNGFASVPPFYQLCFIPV
Protocol: as §5, §6, §7

CYP2C19 = target: T6, CYP2C19 (Homo sapiens, UniProt P33261); assay: Cocktail assay for CYPs in human liver microsomes, mephenytoin 4′-hydroxylation (2C19); type: biochemical; conditions: 30 μM mephenytoin, 10 min at 37° C.
T6 construct: 0.1 mg/mL protein human liver microsomes (BD Gentest); tissue BD Gentest; host or cells: human liver microsomes
T6 sequence (P33261 whole entry): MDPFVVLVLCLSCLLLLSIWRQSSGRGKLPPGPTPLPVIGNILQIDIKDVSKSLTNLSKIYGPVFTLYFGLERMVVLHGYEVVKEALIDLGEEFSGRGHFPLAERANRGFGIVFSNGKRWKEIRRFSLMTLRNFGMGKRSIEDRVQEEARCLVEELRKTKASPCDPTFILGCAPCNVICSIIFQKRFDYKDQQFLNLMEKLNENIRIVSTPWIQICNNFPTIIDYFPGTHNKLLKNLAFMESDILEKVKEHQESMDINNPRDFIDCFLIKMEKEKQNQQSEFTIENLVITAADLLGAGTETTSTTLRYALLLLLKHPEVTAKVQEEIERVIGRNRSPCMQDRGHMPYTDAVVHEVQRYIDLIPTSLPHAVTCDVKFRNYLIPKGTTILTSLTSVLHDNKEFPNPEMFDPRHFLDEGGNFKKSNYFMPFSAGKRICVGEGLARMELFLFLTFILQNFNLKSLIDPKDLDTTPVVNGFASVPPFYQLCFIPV
Protocol: as §5, §6, §7

CYP1A2 = target: T7, CYP1A2 (Homo sapiens, UniProt P05177); assay: Cocktail assay for CYPs in human liver microsomes, phenacetin O-deethylation (1A2); type: biochemical; conditions: 10 μM phenacetin, 10 min at 37° C.
T7 construct: 0.1 mg/mL protein human liver microsomes (BD Gentest); tissue BD Gentest; host or cells: human liver microsomes
T7 sequence (P05177 1-516): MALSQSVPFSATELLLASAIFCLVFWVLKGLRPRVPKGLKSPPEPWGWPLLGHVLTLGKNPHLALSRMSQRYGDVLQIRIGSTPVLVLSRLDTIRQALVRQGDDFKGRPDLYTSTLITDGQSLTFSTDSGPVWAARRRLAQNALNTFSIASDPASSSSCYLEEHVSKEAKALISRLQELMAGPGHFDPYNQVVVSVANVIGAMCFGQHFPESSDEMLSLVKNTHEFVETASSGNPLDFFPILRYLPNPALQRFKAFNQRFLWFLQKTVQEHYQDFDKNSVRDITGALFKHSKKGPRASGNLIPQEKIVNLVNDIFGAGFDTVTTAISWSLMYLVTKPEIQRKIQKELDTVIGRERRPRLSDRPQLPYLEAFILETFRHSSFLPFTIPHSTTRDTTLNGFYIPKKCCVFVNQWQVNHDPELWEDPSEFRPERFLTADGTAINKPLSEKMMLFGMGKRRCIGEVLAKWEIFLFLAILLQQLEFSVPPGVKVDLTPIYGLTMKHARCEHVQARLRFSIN
Protocol: as §5, §6, §7

SMILES: C[C@@H](c1ccccc1-c1ccc(F)cc1)n1cncc1C(=O)N1CCN2C[C@H](O)C[C@H]2C1 [Compound 6, (1-((S)-1-(4′-fluoro-[1,1′-biphenyl]-2-yl)ethyl)-1H-imidazol-5-yl)((7R,8aS)-7-hydroxyhexahydro-pyrrolo[1,2-a]pyrazin-2(1H)-yl)methanone]
- IC50 (human CYP11B2): > 50 µM
- IC50 (CYP2D6): > 10 µM
- IC50 (CYP3A4): 0.0089 µM
- IC50 (human CYP11B1): 29.7 µM
- IC50 (CYP2C9): > 10 µM
- IC50 (CYP2C19): > 10 µM
- IC50 (CYP1A2): > 10 µM

SMILES: CCc1nnc2n1CCN(C(=O)c1cncn1[C@@H](C)c1ccccc1-c1ccc(F)cc1)C2 [Compound 7, (S)-(3-ethyl-5,6-dihydro-[1,2,4]triazolo[4,3-a]pyrazin-7(8H)-yl)(1-(1-(4′-fluoro-[1,1′-biphenyl]-2-yl)ethyl)-1H-imidazol-5-yl)methanone]
- IC50 (human CYP11B2): > 50 µM
- IC50 (CYP2D6): > 10 µM
- IC50 (CYP3A4): 0.0057 µM
- IC50 (human CYP11B1): 45.5 µM
- IC50 (CYP2C9): > 10 µM
- IC50 (CYP2C19): > 10 µM
- IC50 (CYP1A2): > 10 µM

SMILES: C[C@@H](c1ccccc1-c1ccc(F)cc1)n1cncc1C(=O)N1CCC(N2CCC[C@H](O)C2)CC1 [Compound 8]
- IC50 (human CYP11B2): > 50 µM
- IC50 (CYP2D6): > 10 µM
- IC50 (CYP3A4): 0.0056 µM
- IC50 (human CYP11B1): 21 µM
- IC50 (CYP2C9): > 10 µM
- IC50 (CYP2C19): > 10 µM
- IC50 (CYP1A2): > 10 µM

SMILES: C[C@@H](c1ccccc1-c1ccc(F)cc1)n1cncc1C(=O)N1CCC(N2CCCC(C)(O)C2)CC1 (stereo partly shown) [Compound 9]
- IC50 (human CYP11B2): > 50 µM
- IC50 (CYP2D6): 6.63 µM
- IC50 (CYP3A4): 0.0066 µM
- IC50 (human CYP11B1): 24.9 µM
- IC50 (CYP2C9): > 10 µM
- IC50 (CYP2C19): > 10 µM
- IC50 (CYP1A2): > 10 µM

SMILES: CO[C@H]1CN(C2CCN(C(=O)c3cncn3[C@@H](C)c3ccccc3-c3ccc(F)cc3)CC2)CC[C@@H]1O [Compound 10]
- IC50 (human CYP11B2): > 50 µM
- IC50 (CYP2D6): 5.91 µM
- IC50 (CYP3A4): 0.005 µM
- IC50 (human CYP11B1): > 50 µM
- IC50 (CYP2C9): > 10 µM
- IC50 (CYP2C19): > 10 µM
- IC50 (CYP1A2): > 10 µM

SMILES: CO[C@H]1CN(C2CCN(C(=O)c3cncn3[C@@H](C)c3ccccc3-c3ccc(F)cc3)CC2)CC[C@H]1O [Compound 11]
- IC50 (human CYP11B2): > 50 µM
- IC50 (CYP2D6): 7.06 µM
- IC50 (CYP3A4): 0.006 µM
- IC50 (human CYP11B1): 26.7 µM
- IC50 (CYP2C9): > 10 µM
- IC50 (CYP2C19): > 10 µM
- IC50 (CYP1A2): > 10 µM

SMILES: CO[C@@H]1CN(C2CCN(C(=O)c3cncn3[C@@H](C)c3ccccc3-c3ccc(F)cc3)CC2)CC[C@@H]1O [Compound 12]
- IC50 (human CYP11B2): > 50 µM
- IC50 (CYP2D6): 5.08 µM
- IC50 (CYP3A4): 0.0062 µM
- IC50 (human CYP11B1): 41.9 µM
- IC50 (CYP2C9): > 10 µM
- IC50 (CYP2C19): > 10 µM
- IC50 (CYP1A2): > 10 µM
